Molecules are shown by their SMILES. Where two headings read alike, the source gives them in different places.

The test system of data set [1] is HEK293 human embryonic kidney cell line. Kind of data set: MTT cytotoxicity assay, normal cell line HEK293. The format is cell-based. Conditions: HEK293, MTT, 72 h, normal cell line, read-out: IC50 (Mean ± SD) HEK293. How it is done:
All the synthesized imidazothiazole derivatives linked with thiazolidinone moiety (4a-g and 5a-d, Fig. 4) were evaluated for their in- vitro anticancer activities against three selected human cancer cell lines namely non-small lung (A549), breast (MCF7) and colorectal (HCT116) and one normal human embryonic kidney cell line (HEK293) using the 3‐(4,5‐Dimethylthiazol‐2‐yl)-2,5‐Diphenyltetrazolium Bromide (MTT) assay method. […]. […].
Cytotoxicity study of the newly synthesized derivatives 4a-g and 5a-d was performed by MTT colorimetric assay method. […] Compounds were tested against selected cancer cell lines namely A549 (Lung), MCF-7(Breast) HCT116 (Colon), normal human embryonic kidney cell line (HEK293) and procured from National Centre for Cell Science Complex (NCCS) Pune University, India. Into a 96 well plate, cells were seeded into each well (3 × 10^3 cells/ per well), the plate were incubated for 24 h, after that the culture medium was discarded and replaced with fresh medium along with our newly synthesized test compounds in different concentration (10, 20, 40 and 80 µM) followed by incubation for 72 h. Further, the media of each well of the plates were aspirated with the addition of 100 µL MTT solution followed by incubation for the next 5 h at 37 °C. Finally, each well is treated with DMSO (100 µL) and swirled to dissolve the dark crystals of formazan. ELISA reader was used to measure the absorbance at 570 nm. The experiment was repeated three times; Graph pad prism and excel are used to calculate the IC50 values.
(Formazan colour is commonly taken as a measure of viable cells.)

The subject of data set [2] is A549 cells. As to the kind of experiment: Wound healing (migration) assay. The format is cell-based, human. Conditions: 30 µM, 0 and 24 h, vs control. How it is done:
Migration of cells is directly associated with tumor progression and metastasis of cancerous cells. […] An artificial scratch or wound was created on the monolayer of A549 cells using a 200µL sterile pipette tip. […] The images of cells to fill up the artificial scratch or wounds were photographed at 0 and 24 h after the treatment and the responses were visualized using phase contrast microscopy.
Wound healing was performed with A549 cells. On six-well plates, cells were seeded at a density of 5 × 10^5 cells per well and cultured as a confluent monolayer for 24 h. A […] pipette sterile tip was used to make an artificial scratch or wound on the monolayer of A549 cells after a 24-h period, and well plates were then washed with PBS to eliminate any non-adherent cells. The therapy was then administered at the appropriate concentrations of chemicals 4c and 4b. A Nikon phase contrast microscope was used to take pictures of the movement of cells over the scratched region at 0 and 24 h in two or three randomly chosen fields.

For data set [3], the system named is A549 cells. Kind of data set: DAPI nuclear staining. Format: cell-based, human. Conditions: IC50 dose, 48 h. How it is done:
A549 cells were treated with compound 4a, 4b, 4c and morphological changes were observed after nuclear staining with 4′,6‐diamidino‐2‐phenylindole (DAPI).
Cellular nuclear morphology was evaluated by fluorescence microscopy following DAPI staining. […] After incubation, the cells were again gently washed with PBS and the coverslips were mounted on sterile slides using a DPX mounting medium. The prepared slides were observed under a fluorescence microscope (Nikon) having a blue or cyan filter at × 40 magnification.

For data set [4], the system named is A549 cells. Kind of data set: AO/EB dual staining apoptosis assay. Format: cell-based, human. Conditions: vs control. How it is done:
An early and late apoptotic along with necrotic cells were also observed in active compounds (4a-c) treated A549 cells (Fig. 9b).
A549 cell lines were cultured in six-well plates at 4 × 10^4 cells/well and then these cells were treated with 1.56 and 12.5 μg mL^−1 of […] for 48 h respectively. Further, Cells were harvested and stained with AO-EtBr dye mix (1:1 v/v from 100 μg mL^−1 in PBS) and studied using a fluorescent microscope.

Data set [5] addresses Bovine serum albumin (BSA) (Bos taurus, UniProt P02769). Kind of data set: BSA (protein albumin) denaturation inhibition assay. Conditions: for BSA denaturation inhibition assay Mean absorbance ± SEM: 100 μg/mL, 660 nm. How it is done: All the synthesized compounds were evaluated for anti-inflammatory activity by the inhibition of the albumin denaturation technique. […] All the test solutions (1 mL, 100 μg/mL) were then mixed with 1 mL of albumin solution (1%) and phosphate buffer saline and then incubated for around 15 min at 27 ± 1 °C. Further, the denaturation of protein was induced by keeping the reaction mixture on the water bath for 10 min and maintaining the temperature at 60 °C. Once the solution gets cooled, the turbidity was measured using UV–Visible spectrophotometer at 660 nm.

For another data set, the system named is gastric mucosa of rats. Kind of data set: Ulcerogenic activity. Format: in vivo, rat. As to conditions: oral 0.0942 mmol/kg. How it is done: The Compounds (4a-d, 5a-b) which were found potent as anti-inflammatory agents were further screened for their ulcerogenic risk. The compounds and the standard drug were tested at an oral dose of 0.0942 mmol/kg.
Animals were divided into different groups consisting of 6 rats per group. […] The control group received 0.5% of the carboxymethylcellulose (CMC) solution. […] 24 h before the test compounds were administered. After receiving the medication, the rats were given regular food for 17 h and then sacrificed. The stomach was taken out and opened along its greater curvature before being gently cleansed by dipping it in normal saline and then washing it with distilled water. The mucosal injury/damage was examined thoroughly using a magnifying glass. The mucosal injury in each stomach was scored using the following score system: 0.5: Redness; 1.0: Spot Ulcers; 1.5: Hemorrhagic Streaks; 2.0: Ulcers > 3 but 5, 3.0: Ulcers > 5. The severity index (SI) of stomach mucosal injury was calculated as the mean score of each treated group minus the mean score of the control group.

The test system of data set [6] is A549 (Lung) cancer cell line. Kind of data set: MTT cytotoxicity assay, A549. Conditions: Homo sapiens, A549, 72 h, read-out: IC50 (µM) (Mean ± SD) A549.
Method: (§1) All the synthesized imidazothiazole derivatives linked with thiazolidinone moiety (4a-g and 5a-d, Fig. 4) were evaluated for their in- vitro anticancer activities against three selected human cancer cell lines namely non-small lung (A549), breast (MCF7) and colorectal (HCT116) and one normal human embryonic kidney cell line (HEK293) using the 3‐(4,5‐Dimethylthiazol‐2‐yl)-2,5‐Diphenyltetrazolium Bromide (MTT) assay method. […] Compounds were tested against selected cancer cell lines namely A549 (Lung), MCF-7(Breast) HCT116 (Colon), normal human embryonic kidney cell line (HEK293) and procured from National Centre for Cell Science Complex (NCCS) Pune University, India. Into a 96 well plate, cells were seeded into each well (3 × 10^3 cells/ per well), the plate were incubated for 24 h, after that the culture medium was discarded and replaced with fresh medium along with our newly synthesized test compounds in different concentration (10, 20, 40 and 80 µM) followed by incubation for 72 h. […] Finally, each well is treated with DMSO (100 µL) and swirled to dissolve the dark crystals of formazan. ELISA reader was used to measure the absorbance at 570 nm. The experiment was repeated three times; Graph pad prism and excel are used to calculate the IC50 values[51].
The test system of data set [7] is MCF7 human breast cancer cell line. As to the kind of experiment: MTT cytotoxicity assay, MCF7. As to conditions: MCF7, 72 h, read-out: IC50 (µM) (Mean ± SD) MCF7.
Method: as §1
For data set [8], the system named is HCT116 human colorectal cancer cell line. As to the kind of experiment: MTT cytotoxicity assay, HCT116. Conditions: HCT-116, 72 h, read-out: IC50 (µM) (Mean ± SD) HCT116.
Method: as §1
A further data set deals with EGFR kinase (Homo sapiens, UniProt P00533). As to the kind of experiment: In vitro EGFR kinase inhibitory assay (ELISA, phospho-EGFR in A549 cell lysates). A general note: In an ELISA, binding on a coated surface is turned into a signal by an enzyme label.
Where [9] appears, read: read-out: BSA denaturation inhibition assay % inhibition of denaturation.

Chain of EGFR kinase (P00533 25-1210): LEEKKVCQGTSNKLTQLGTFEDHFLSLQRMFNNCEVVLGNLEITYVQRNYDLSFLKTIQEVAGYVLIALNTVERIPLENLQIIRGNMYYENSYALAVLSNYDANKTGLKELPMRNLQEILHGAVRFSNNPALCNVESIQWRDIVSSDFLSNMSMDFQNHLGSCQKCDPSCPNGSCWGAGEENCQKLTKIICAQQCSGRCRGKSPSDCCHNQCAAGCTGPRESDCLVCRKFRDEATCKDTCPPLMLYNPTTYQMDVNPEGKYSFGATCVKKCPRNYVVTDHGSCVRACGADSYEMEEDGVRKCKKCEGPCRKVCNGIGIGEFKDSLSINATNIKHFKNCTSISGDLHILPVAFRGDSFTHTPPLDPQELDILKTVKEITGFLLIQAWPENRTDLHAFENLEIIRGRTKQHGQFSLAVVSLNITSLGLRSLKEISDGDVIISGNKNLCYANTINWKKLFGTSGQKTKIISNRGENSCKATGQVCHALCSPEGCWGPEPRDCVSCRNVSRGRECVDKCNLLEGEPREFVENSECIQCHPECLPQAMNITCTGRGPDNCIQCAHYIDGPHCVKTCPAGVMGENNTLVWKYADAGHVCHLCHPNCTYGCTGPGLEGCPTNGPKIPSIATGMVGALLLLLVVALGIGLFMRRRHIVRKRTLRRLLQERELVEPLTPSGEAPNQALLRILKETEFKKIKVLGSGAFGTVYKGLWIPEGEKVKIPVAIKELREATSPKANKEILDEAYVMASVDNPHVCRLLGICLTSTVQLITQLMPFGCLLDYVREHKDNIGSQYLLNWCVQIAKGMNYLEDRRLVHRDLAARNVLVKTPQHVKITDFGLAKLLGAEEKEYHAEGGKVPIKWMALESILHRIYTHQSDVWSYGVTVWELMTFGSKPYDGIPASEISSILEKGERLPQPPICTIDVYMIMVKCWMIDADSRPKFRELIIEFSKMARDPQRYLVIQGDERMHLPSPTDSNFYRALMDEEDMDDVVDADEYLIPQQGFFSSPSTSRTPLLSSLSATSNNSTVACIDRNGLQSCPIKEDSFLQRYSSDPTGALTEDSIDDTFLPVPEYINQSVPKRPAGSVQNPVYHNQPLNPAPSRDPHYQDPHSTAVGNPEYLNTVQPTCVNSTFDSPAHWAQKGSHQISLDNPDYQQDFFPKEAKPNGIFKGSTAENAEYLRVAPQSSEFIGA
Chain of Bovine serum albumin (BSA) (P02769 25-607): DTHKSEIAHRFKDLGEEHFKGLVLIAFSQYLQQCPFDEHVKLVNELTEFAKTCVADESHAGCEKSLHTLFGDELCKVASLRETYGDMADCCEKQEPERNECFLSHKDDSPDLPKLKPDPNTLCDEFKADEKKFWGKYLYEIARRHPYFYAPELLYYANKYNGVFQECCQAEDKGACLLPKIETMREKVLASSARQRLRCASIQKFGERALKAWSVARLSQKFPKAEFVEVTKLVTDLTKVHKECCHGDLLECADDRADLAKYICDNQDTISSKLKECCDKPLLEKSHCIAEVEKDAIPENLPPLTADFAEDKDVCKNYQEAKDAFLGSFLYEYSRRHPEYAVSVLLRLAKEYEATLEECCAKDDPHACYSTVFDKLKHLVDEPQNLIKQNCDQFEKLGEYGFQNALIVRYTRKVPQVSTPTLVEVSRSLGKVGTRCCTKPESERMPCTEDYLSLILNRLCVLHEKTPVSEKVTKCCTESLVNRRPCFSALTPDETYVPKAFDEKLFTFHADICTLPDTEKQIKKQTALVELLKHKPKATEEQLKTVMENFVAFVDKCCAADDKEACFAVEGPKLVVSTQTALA
Method for EGFR kinase: For all the synthesized compounds, the overall methodology of a spectrophotometric assay for the inhibition of EGFR tyrosine kinase activity was evaluated in human A549 cells, which expressed high levels of EGFR protein. […] Cells were then washed with cold PBS, lysed in 0.2 ml/well of HNTG buffer (50 mM HEPES [(4‐(2‐hydroxyethyl)‐piperazineethanesulfonic acid; pH 7.5], 150 mM NaCl, 1.5 mM MgCl, 10% glycerol, 1% Triton X‐100, 0.5 mM sodium fluoride, 2 g/ml aprotinin, 2 g/ml pepstatin A, 1 mM sodium orthovanadate, 2 g/ml leupeptin, 1 mM phenyl methyl sulfonyl fluoride) for 10 min, and the lysates were collected as the supernatant fraction after a 12‐min centrifugation at 15,000 g. The specific EGFR concentration was measured by ELISA assay. Briefly, the wells of ELISA plates were coated with supernatant fraction and incubated at 4 °C overnight After washing three times with buffer (20 mM PBS, pH 7.2 containing 0.05% Tween‐20), the wells were blocked with 1% BSA for 2–3 h at room temperature. Further, the plate was washed and then mouse serum at 1,000‐fold dilution was added, followed by washing and incubation with phospho‐EGFR antibody (Invitrogen) at 4 °C overnight. The wells were washed and incubated with substrate solution (o‐phenylenediamine dihydrochloride), for 30 min, and the absorbance read on an ELISA plate reader at 490 nm[52]. %Inhibition=mean OD of untreated group-mean OD of treated group/mean OD of untreated group)×100.

Turning to `CC1SC(c2c(-c3ccccc3)nc3sccn23)N(c2ccc(F)cc2)C1=O` (centres unmarked) [Compound 4a, 3-(4-Fluorophenyl)-5-methyl-2-(6-phenylimidazo[2,1-b]thiazol-5-yl) thiazolidin-4-one], the IC50 (commonly the midpoint of a concentration-inhibition curve) in data set [1] turned out to be 147 ± 4.3 µM; in [6], 22.5 ± 2.04 µM; in data set [7], 22.8 ± 5.5 µM; in data set [8] it was 23.7 ± 0.85 µM; on EGFR kinase it was 28.6 ± 1.96 µM. The “Migration of A549 cells (wound healing)” value with A549 cells [2] was “significant suppression in the migration of A549 cells”. Further, the “Nuclear morphological change (DAPI)” value in the data set on A549 cells [3] is “chromatin condensation and nuclear fragmentation and margination of nucleus”. For the same molecule, the “Apoptotic cells (AO/EB dual staining)” value in the data set on A549 cells [4] is on record as “number of apoptotic cells enhanced”. Moreover, the inhibition at 100 µg/mL in data set [5] (read-out: BSA denaturation inhibition assay % inhibition of denaturation, 100 μg/mL) came to 82.1%. In the data set on gastric mucosa of rats, the “Mean ulcer severity index ± SEM” value was determined as 1.167 ± 0.210.
For `CC1SC(c2c(-c3ccccc3)nc3sccn23)N(c2ccc(Cl)cc2)C1=O` (centres unmarked) [Compound 4b, 3-(4-Chlorophenyl)-5-methyl-2-(6-phenylimidazo[2,1-b]thiazol-5-yl) thiazolidin-4-one], the IC50 in data set [1] is 101 ± 3.41 µM; in [6], 21.1 ± 1.04 µM; in data set [7], 29.2 ± 7.1 µM; in data set [8] it was 45 ± 1.02 µM; against EGFR kinase, 24.3 ± 1.73 µM. Besides, the “Migration of A549 cells (wound healing)” value in the data set on A549 cells [2] was “significant suppression in the migration of A549 cells”. Moreover, the “Nuclear morphological change (DAPI)” value in the data set on A549 cells [3] is “chromatin condensation and nuclear fragmentation and margination of nucleus”. In addition, the “Apoptotic cells (AO/EB dual staining)” value with A549 cells [4] is “number of apoptotic cells enhanced”. For the same molecule, the “BSA denaturation inhibition assay Mean absorbance ± SEM” value in data set [5] is recorded as 0.329 ± 0.001. The inhibition at 100 µg/mL in data set [5] (setting [9]) was 84.9%. For the same molecule, in the data set with gastric mucosa of rats, the “Mean ulcer severity index ± SEM” value amounted to 0.416 ± 0.153.
On to `CC1SC(c2c(-c3ccccc3)nc3sccn23)N(c2ccc(Br)cc2)C1=O` (centres unmarked) [Compound 4c, 3-(4-Bromophenyl)-5-methyl-2-(6-phenylimidazo[2,1-b]thiazol-5-yl) thiazolidin-4-one], for which the IC50 amounted to 96.4 ± 1.79 µM in data set [1]; 10.7 ± 0.4 µM in data set [6]; 18.7 ± 0.88 µM in data set [7]; 23.2 ± 1.89 µM in data set [8]; 18.4 ± 1.25 µM on EGFR kinase. Moreover, the “Migration of A549 cells (wound healing)” value with A549 cells [2] is “significant suppression in the migration of A549 cells”. Besides, the “Nuclear morphological change (DAPI)” value with A549 cells [3] was “chromatin condensation and nuclear fragmentation and margination of nucleus”. In addition, the “Apoptotic cells (AO/EB dual staining)” value in the data set on A549 cells [4] is given as “number of apoptotic cells enhanced”. For the same molecule, the “BSA denaturation inhibition assay Mean absorbance ± SEM” value in [5] was determined as 0.332 ± 0.006. The inhibition at 100 µg/mL in [5] (setting [9]) turned out to be 83.6%. Moreover, the “Mean ulcer severity index ± SEM” value in the data set on gastric mucosa of rats turned out to be 0.500 ± 0.182.
